According to patent publication US11008340B2, “Modulators of ROR-gamma” (Vitae Pharmaceuticals, LLC, priority 2015, dated 2021):
Where two headings read alike, the source gives them in different places.

What was measured:
[1] = target: T1, recombinant RORγ Ligand Binding Domain (LBD) protein (Homo sapiens, UniProt P51449); test: Radio-Ligand RORγ Binding Assay (Assay 1); details: radio-ligand competition, 25-hydroxy [26,27-3H]-cholesterol, RORγ LBD; read-out: Avg ROR Bind Ki
T1 construct: 6×His; GST
T1 sequence (P51449 269-508 limits assumed): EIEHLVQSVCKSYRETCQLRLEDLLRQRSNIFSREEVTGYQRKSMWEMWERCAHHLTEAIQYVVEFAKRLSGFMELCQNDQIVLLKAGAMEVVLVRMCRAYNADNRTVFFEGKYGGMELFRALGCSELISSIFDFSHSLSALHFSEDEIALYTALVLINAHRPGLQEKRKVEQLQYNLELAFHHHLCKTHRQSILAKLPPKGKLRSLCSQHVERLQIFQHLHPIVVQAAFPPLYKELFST
Outline: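 Cell-free SPA competition between compound and 25-hydroxy[26,27-^3H]-cholesterol for 6×His-GST-tagged RORγ LBD in 50 mM HEPES pH 7.4 with NaCl, MgCl2, glycerol, CHAPS, octylglucoside and DTT. Mix was shaken 20 min, held 10 min at rt, then read after poly-Lys YSi beads. IC50 came from a four-parameter fit, and Ki from radioligand KD.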

[2] = target: T2, full-length RORγt in Jurkat cells (Homo sapiens, UniProt P51449); test: RORγt 5×RORE Assay in Jurkat Cells (Assay 2); assay type: cell-based; details: 5×RORE luciferase reporter
T2 construct: transcriptional activity of the full-length RORγt in Jurkat cells; host or cells: Jurkat cells (ATCC TIB-152)
T2 sequence (P51449 1-497 isoform P51449-2): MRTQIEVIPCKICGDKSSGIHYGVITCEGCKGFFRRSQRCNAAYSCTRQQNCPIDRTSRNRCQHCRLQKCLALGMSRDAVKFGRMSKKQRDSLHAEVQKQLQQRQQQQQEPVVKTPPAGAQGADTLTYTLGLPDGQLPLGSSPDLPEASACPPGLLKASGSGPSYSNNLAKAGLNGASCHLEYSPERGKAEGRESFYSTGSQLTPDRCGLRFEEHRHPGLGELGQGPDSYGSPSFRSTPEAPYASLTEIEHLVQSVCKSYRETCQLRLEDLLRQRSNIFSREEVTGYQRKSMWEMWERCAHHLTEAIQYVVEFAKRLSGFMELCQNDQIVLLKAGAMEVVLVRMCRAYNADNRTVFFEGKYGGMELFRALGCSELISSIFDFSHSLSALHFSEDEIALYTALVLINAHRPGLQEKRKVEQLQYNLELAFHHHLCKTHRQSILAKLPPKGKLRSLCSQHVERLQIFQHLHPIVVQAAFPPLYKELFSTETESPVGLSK
Outline: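 Jurkat cells transiently co-transfected with full-length RORγt expression plasmid and secreted NanoLuc reporter driven by 5×RORE; plated in phenol-red-free RPMI with 10% delipidated FBS. Compounds added at 0.1% DMSO final, 16-18 hrs at 37° C; supernatant luciferase read with NanoGlo as measure of inverse agonism.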

[3] = Table 20, read-out: Avg ROR γt/5x IC5

Structure (SMILES)	Ki [1]	IC50 [2, 3]	IC50 ([2]; read-out: Avg ROR γt/5x IC50)
CC[C@@H]1CN(c2ccc(C(F)(F)F)cc2)Cc2cc(C(=O)NCc3ccc(S(=O)(=O)CC)cc3)ccc21 (single isomer, unassigned) [Hy7-7.1]	< 100 nM	< 100 nM	–
CCS(=O)(=O)c1ccc([C@H](CO)NC(=O)c2ccc3c(OC[C@H]4CC[C@H](C(F)(F)F)CC4)nccc3c2)cc1 [Hy1A-8, N-((R)-1-(4-(ethylsulfonyl)phenyl)-2-hydroxyethyl)-1-(((1r,4R)-4-(trifluoromethyl)cyclohexyl)methoxy)isoquinoline-6-carboxamide]	< 100 nM	–	100 to 1000 nM
CCOC(=O)c1cnc(N2Cc3cc(C(=O)NCc4ccc(S(=O)(=O)CC)cc4)ccc3[C@H](C(C)C)C2)nc1C(F)(F)F (single isomer, unassigned) [Hy7-26.1]	< 100 nM	< 100 nM	–
CCS(=O)(=O)c1ccc(CNC(=O)c2ccc3c(OCc4ccc(C(F)(F)F)cc4)nccc3c2)cc1 [Hy1A-4, N-(4-(ethylsulfonyl)benzyl)-1-((4-(trifluoromethyl)benzyl)oxy)isoquinoline-6-carboxamide]	< 100 nM	–	100 to 1000 nM
CCS(=O)(=O)c1ccc(CNC(=O)c2ccc3c(c2)CN(c2ncc(Cl)cn2)C[C@H]3C(C)C)cc1 (single isomer, unassigned) [Hy7-3.1]	< 100 nM	100 to 1000 nM	–
CCS(=O)(=O)c1ccc(CNC(=O)c2ccc3c(c2)CN(c2ncc(F)cn2)C[C@@H]3C(C)C)cc1 (single isomer, unassigned) [Hy7-1.2]	< 100 nM	> 1000 nM	–
CCc1c2ccc(C(=O)N[C@@H](CO)c3ccc(S(=O)(=O)CC)cc3)cc2nn1C[C@H]1CC[C@H](C(F)(F)F)CC1 [Hy3A-5, 3-ethyl-N-((R)-1-(4-(ethylsulfonyl)phenyl)-2-hydroxyethyl)-2-(((1r,4R)-4-(trifluoromethyl)cyclohexyl)methyl)-2H-indazole-6-carboxamide]	< 100 nM	–	< 100 nM
CC[C@@H]1CN(c2ncc(-c3ncco3)cn2)Cc2cc(C(=O)NCc3ccc(S(=O)(=O)CC)cc3)ccc21 (single isomer, unassigned) [Hy7-31.1]	< 100 nM	< 100 nM	–
CCOC(=O)c1cnc(N2Cc3cc(C(=O)NCc4ccc(S(=O)(=O)CC)cc4)ccc3[C@H](C(C)C)C2)nc1 (single isomer, unassigned) [Hy7-16.1]	< 100 nM	< 100 nM	–
CC[C@H]1CN(c2ncc(C(F)(F)F)cc2C)Cc2cc(C(=O)N[C@@H](CO)c3ccc(S(=O)(=O)CC)cc3)ccc21 (single isomer, unassigned) [Hy7-22.2]	< 100 nM	100 to 1000 nM	–
CCC1CN(C2CCC(C(F)(F)F)CC2)Cc2cc(C(=O)NC(CO)c3ccc(S(=O)(=O)CC)cc3)ccc21 (single isomer, unassigned) [Hy7-35.1]	< 100 nM	< 100 nM	–
CCS(=O)(=O)c1ccc(CNC(=O)c2ccc3c(c2)CN(c2ncc(Cl)cn2)C[C@@H]3C(C)C)cc1 (single isomer, unassigned) [Hy7-3.2]	< 100 nM	> 1000 nM	–
